The target in one experiment is T1, LXRβ (Homo sapiens, UniProt P55055).
T1 sequence (P55055 1-460): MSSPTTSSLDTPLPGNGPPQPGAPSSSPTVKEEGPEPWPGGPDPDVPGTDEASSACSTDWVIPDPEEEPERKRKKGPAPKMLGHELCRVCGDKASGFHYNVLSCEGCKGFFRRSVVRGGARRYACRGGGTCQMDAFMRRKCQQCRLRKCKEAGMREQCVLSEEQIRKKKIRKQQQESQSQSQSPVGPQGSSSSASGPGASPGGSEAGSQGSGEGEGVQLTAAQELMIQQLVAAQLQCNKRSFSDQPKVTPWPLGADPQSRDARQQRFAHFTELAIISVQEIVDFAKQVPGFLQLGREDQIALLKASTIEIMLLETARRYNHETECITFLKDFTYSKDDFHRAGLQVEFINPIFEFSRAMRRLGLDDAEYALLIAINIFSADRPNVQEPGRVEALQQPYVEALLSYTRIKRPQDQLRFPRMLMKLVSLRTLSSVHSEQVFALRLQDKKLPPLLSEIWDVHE
As to the kind of experiment: LXRE-driven luciferase cotransfection assay in HEK293 cells. The format is cell-based.

In the next experiment the target is T2, LXRα (Homo sapiens, UniProt Q13133).
T2 sequence (Q13133 209-447 limits assumed): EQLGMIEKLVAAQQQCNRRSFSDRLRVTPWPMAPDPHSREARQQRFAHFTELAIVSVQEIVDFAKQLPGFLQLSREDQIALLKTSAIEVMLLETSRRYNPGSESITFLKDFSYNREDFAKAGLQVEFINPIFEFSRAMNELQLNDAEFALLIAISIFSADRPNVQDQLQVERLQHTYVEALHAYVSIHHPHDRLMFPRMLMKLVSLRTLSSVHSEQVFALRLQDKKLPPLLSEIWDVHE
As to the kind of experiment: Luminex coregulator peptide recruitment with LXRα LBD at […]. It counts as cell-based.

These results are taken from PMC5087326 (Biochemical and biophysical research communications, 2016).

`Cc1cc(C)c(S(=O)(=O)N(Cc2ccc(-c3cccc(S(C)(=O)=O)c3)cc2)Cc2ccc(C(F)(F)F)o2)c(C)c1` [GSK2033]: the IC50 was determined as 9 nM against LXRβ and 17 nM against LXRα.

As a reminder, the IC50 is the concentration that inhibits the measured activity by half. Low values mean inhibition by little substance, high ones a need for much substance.
